Experimental data as given in publication PMC10142183, “Optimization of polymyxin B regimens for the treatment of carbapenem-resistant organism nosocomial pneumonia: a real-world prospective study” (Critical Care, 2023).
Positions of bridges follow the written chain, without caps; N, C: chain ends. Non-standard residues stand in square brackets, D forms with d. Residues, ends and D or L forms follow the SMILES beside them. *: point of attachment. X1 = CC[C@H](C)CCCCC(=O)*; Dab = NCC[C@H](N)C(=O)O

Columns and labels:
[1] = critically ill patients; weight-based regimen 1.25-1.5 mg/kg every 12 h; cited from earlier work
Procedure: At present, weight-based dosing regimen (1.25–1.5 mg/kg every 12 h) is recommended for polymyxin B [17, 18]. However, polymyxin B concentration varies widely in critically ill patients with this regimen, and almost 30% patients cannot achieve AUCss,24 h values within the target therapeutic window. […] Due to these inconsistent results, further research is needed to improve the charac ...

[2] = system: CRO nosocomial pneumonia; test: 30-day all-cause mortality in CRO nosocomial pneumonia; type: in vivo, human; conditions: Cox regression, p = 0.001
Procedure: This prospective study was conducted at two intensive care units (ICU) between January 2020 and December 2021 in the Second Xiangya Hospital of Central South University (Changsha, China). […] The exclusion criteria were as follows: (a) concomitant lung cancer with obstructive pneumonitis or cystic fibrosis; (b) solid organ transplantation; (c) hematologic malignancies and hematopoietic cell transplant recipients; (d) receiving renal replacement therapy. HAP was defined according to the 2016 clinical practice guidelines of the Infectious Diseases Society of America and the American Thoracic Society. Determination of carbapenem susceptibility of CRO was followed by the European Committee on Antimicrobial Susceptibility Testing (EUCAST). […] Creatinine clearance (CrCL) was calculated using the Cockcroft–Gault equation. […] Assessment of clinical efficacy was conducted at the end of treatment, and 30-day mortality was recorded from the start of polymyxin B treatment. […]
Clinical outcomes were classified as clinical success (CS) and clinical failure (CF), and were assessed by two physicians. […] 30-day all-cause mortality was recorded from the start of polymyxin B treatment. […]
Statistical analysis was performed with SPSS 24.0 (SPSS, IBM Company, Chicago, IL, USA) software. […] Categorical variables are expressed as counts and percentages, and the chi-square test or Fisher’s exact test was used. […]

[3] = Population PK model and plasma exposure in critically ill patients (HPLC-MS/MS, Phoenix NLME); type: in vivo, human; parameters: AUCss, 24h: concentration or dose not given beside the values
Procedure: Polymyxin B was given to all patients empirically as a loading dose of 100–200 mg followed by a maintenance dose of 40–100 mg every 12 h for at least 3 days. The infusion time was at least 1 h. Aerosol delivery of polymyxin B (25 mg or 50 mg twice daily) was using a vibrating mesh nebulizer, synchronized with the inspiratory cycle of the ventilator. Two to six blood samples (2 mL) were randomly collected immediately before the seventh dose of polymyxin B and at 0, 1, 2, 4, 6, 8 and 10 h after the end of infusion. The supernatant was immediately stored at − 80 °C until analysis.
An established high-performance liquid chromatography-tandem mass spectrometry (HPLC–MS/MS) was used to measure the concentrations of polymyxin B1 and polymyxin B2 as described previously by the authors’ laboratory (The total concentration of polymyxin B = [polymyxin B1 concentration/polymyxin B1 molecular + polymyxin B2 concentration/polymyxin B2 molecular]*total polymyxin B molecular). The interday precision was < 12%, the intraday precision was < 9%, and the accuracy ranged from 96.1 to 110.4%. The limit of quantification (LLOD) was 0.03 mg/L, and all of the polymyxin B concentrations detected were over LLOD.
The Phoenix NLME program (version 8.1. Pharsight, A Certara Company, USA) with the method of first-order conditional estimation-extended least square method (FOCE-ELS) was used to develop the population PK model by analyzing polymyxin B concentration. The objective function value (OFV), goodness-of-fit plots and the reasonable of population PK parameters were used to selection of the structure model. The stepwise covariate modeling (SCM) approach was used to test the covariate model in this analysis; age, sex, body weight, alanine aminotransferase (ALT), aspartate aminotransferase (AST), total bilirubin (TBIL), direct bilirubin (DBIL), serum albumin (ALB) and CrCL were evaluated as the covariates. The SCM consists of a forward selection step (the criterion is p < 0.05 for ΔOFV decreased ≥ 3.84) and a backward elimination step (the criterion is p < 0.001 for ΔOFV increased ≥ 10.83). In addition, the goodness-of-fit plots were used to assess the validity of the population PK model, the prediction-corrected visual predictive check (pcVPC) was used to assess the predictive performance of the key models. The bootstrap method was used to assess the accuracy.
The PK/PD indices included AUCss,24 h, AUCss,24 h/MIC, the peak and trough concentration at steady state (Cmax,ss and Cmin,ss), Cmax,ss /MIC and Cmin,ss /MIC. AUCss,24 h, Cmax,ss and Cmin,ss were calculated based on the empirical Bayesian (EBEs). For those patients with more than one baseline pathogen, AUCss,24 h/MIC, Cmax,ss /MIC and Cmin,ss /MIC evaluations were based on the pathogen with the highest MIC value.

[4] = system: CRO nosocomial pneumonia; test: PK/PD analysis for clinical efficacy in CRO nosocomial pneumonia; type: in vivo, human
Procedure: This prospective study was conducted at two intensive care units (ICU) between January 2020 and December 2021 in the Second Xiangya Hospital of Central South University (Changsha, China). […] The exclusion criteria were as follows: (a) concomitant lung cancer with obstructive pneumonitis or cystic fibrosis; (b) solid organ transplantation; (c) hematologic malignancies and hematopoietic cell transplant recipients; (d) receiving renal replacement therapy. HAP was defined according to the 2016 clinical practice guidelines of the Infectious Diseases Society of America and the American Thoracic Society. Determination of carbapenem susceptibility of CRO was followed by the European Committee on Antimicrobial Susceptibility Testing (EUCAST). Updated EUCAST Clinical Breakpoints of polymyxin B were sensitivity (S ≤ 2 mg/L) and drug resistance (R > 2 mg/L). The antimicrobial susceptibility testing was performed using the VITEK-2 Compact system with VITEK cards (0.5–16 mg/L for colistin) (bioMérieux, France). The following information was extracted from the electronic medical records: demographic and co-morbidity profiles, clinical and microbiological features of the infections, and the antimicrobial treatment regimens. Creatinine clearance (CrCL) was calculated using the Cockcroft–Gault equation. The endpoint was clinical efficacy and 30-day all-cause mortality. Assessment of clinical efficacy was conducted at the end of treatment, and 30-day mortality was recorded from the start of polymyxin B treatment. This prospective study was approved by the Ethics Committee of the Second Xiangya Hospital, Central South University. Informed consent was obtained from all patients or legal representatives of the patients (No. ChiCTR1900022231).
Clinical outcomes were classified as clinical success (CS) and clinical failure (CF), and were assessed by two physicians. CS was defined as a composite of survival; hemodynamic stability; body temperature < 38 °C, improved biochemistry indicators of infection; stable or improved PaO2/FiO2 ratio. Additionally, for patients with bacteremia, microbiological cure (no growth of the initial isolate in blood cultures) must be achieved by the end of the treatment. […] 30-day all-cause mortality was recorded from the start of polymyxin B treatment.
Variables potentially related to clinical efficacy and 30-day all-cause mortality were assessed, including: demographics, co-morbidities, clinical conditions, dosage regimen and concentration of polymyxin B. To develop receiver operating characteristic (ROC) curves, the PK/PD indices AUCss,24 h/MIC, Cmax,ss/MIC and Cmin,ss/MIC were used as predictors of clinical efficacy. The area under the diagnostic curve (AUCROC) was calculated to evaluate the correlation of the above parameters with clinical efficacy and 30-day all-cause mortality. Youden index of the ROC curves was calculated by "sensitivity + specificity-1", and the values corresponding to the maximum Youden index is the optimal cutoff point value of the PK/PD indices.
Statistical analysis was performed with SPSS 24.0 (SPSS, IBM Company, Chicago, IL, USA) software. Continuous variables are presented as the mean ± standard deviation (SD) if normally distributed and were compared using Student’s t tests. The median and interquartile range (IQR) are presented for abnormally distributed data, and the Mann–Whitney U test was used. Categorical variables are expressed as counts and percentages, and the chi-square test or Fisher’s exact test was used. Spearman’s rank correlation coefficient (r) was used to analyze the correlation between Cmin,ss, Cmax,ss and AUCss,24 h. Univariate analysis was performed for all variables to identify possible predictors for clinical efficacy. Variables with a p < 0.05 were entered into the multivariate logistic regression models. […]

[5] = 30-day non-survival group (n = 28), median (IQR)
[6] = 30-day survival group (n = 77), median (IQR)
[7] = clinical failure group (n = 35), median (IQR)
[8] = clinical success group (n = 70), median (IQR)
[9] = final model estimate, two-compartment population PK, 105 patients, 295 plasma concentrations
[10] = median of 105 patients, plasma, empirical Bayesian estimates

## CC[C@H](C)CCCCC(=O)N[C@@H](CCN)C(=O)N[C@H](C(=O)N[C@@H](CCN)C(=O)N[C@H]1CCNC(=O)[C@H]([C@@H](C)O)NC(=O)[C@H](CCN)NC(=O)[C@H](CCN)NC(=O)[C@H](CC(C)C)NC(=O)[C@@H](Cc2ccccc2)NC(=O)[C@H](CCN)NC1=O)[C@@H](C)O [polymyxin B] (X1-[Dab]T[Dab][Dab][Dab][dF]L[Dab][Dab]T; lactam 4-C)
[1]
  patients who cannot achieve AUCss,24 h values within the target therapeutic window: ~30%
[2]
  HR (95% CI) of PMB treatment duration (day) for 30-day mortality: 0.67 (0.53-0.85)
[3]; [5]
  AUCss, 24h: 62.1 (46.3, 83.2) mg·h/L
  Cmax,ss: 5.4 (4.6, 6.1) μg/mL
  Cmin,ss: 2.1 (1.6, 2.6) μg/mL
  Cmin,ss /MIC: 2.2 (1.6, 2.7)
[3]; [6]
  AUCss, 24h: 69.4 (58.5, 86.9) mg·h/L
  Cmax,ss: 6.5 (5.8, 7.2) μg/mL
  Cmin,ss: 2.2 (1.9, 2.5) μg/mL
  Cmin,ss /MIC: 2.2 (1.9, 2.5)
[3]; bootstrap method estimate
  CL (clearance in central compartment): 1.56 L/h
  CLd (clearance between central and peripheral compartment): 2.41 L/h
  Vc (volume distribution in central compartment): 12.5 L
  Vp (volume in peripheral compartment): 29.9 L
[3]; [7]
  AUCss, 24h: 60.6 (43.5, 66.6) mg·h/L
  Cmax,ss: 5.1 (3.7, 6.9) μg/mL
  Cmin,ss: 1.8 (1.0, 2.5) μg/mL
  Cmin,ss /MIC: 1.7 (0.9, 1.9)
[3]; [8]
  AUCss, 24h: 78.6 (62.4, 84.2) mg·h/L
  Cmax,ss: 6.8 (5.0, 7.6) μg/mL
  Cmin,ss: 2.4 (1.6, 2.8) μg/mL
  Cmin,ss /MIC: 2.4 (1.4, 3.1)
[3]; [9]
  CLd (clearance between central and peripheral compartment): 2.41 L/h
  Vc (volume distribution in central compartment): 12.5 L
  Vp (volume in peripheral compartment): 29.9 L
[3]; final model estimate, two-compartment population PK, 105 patients, 295 plasma concentrations, IV 100-200 mg loading then 40-100 mg every 12 h
  CL (clearance in central compartment): 1.56 L/h
[3]; [10]
  AUCss, 24h: 67.2 mg·h/L
  Cmax,ss (peak concentration at steady state): 5900 ng/mL
  Cmin,ss (trough concentration at steady state): 1900 ng/mL
[4]; 51 patients with AUCss,24 h/MIC < 66.9, 95% CI 0.06-0.79, p = 0.022
  OR of combination of inhaled polymyxin B for clinical efficacy: 0.21
[4]; 54 patients with AUCss,24 h/MIC ≥ 66.9, 95% CI 0.09-2.46, p = 0.365
  OR of combination of inhaled polymyxin B for clinical efficacy: 0.46
[4]; Covariate-Adjusted Residuals method, 95% CI 0.38-1.01, p = 0.056
  AOR of dose normalized-AUCss,24 h/MIC for efficacy: 0.62
[4]; IV + IH group, AUCss,24 h/MIC ≥ 66.9 (54 patients)
  clinical success rate: 90.0%
[4]; IV group, AUCss,24 h/MIC < 66.9 (51 patients)
  clinical success rate: 35.1%
[4]; IV group, AUCss,24 h/MIC ≥ 66.9 (54 patients)
  clinical success rate: 82.3%
[4]; MIC mostly 1 mg/L
  favorable clinical outcomes in pneumonia patients with AUCss,24 h > 66.9: 85.2%
[4]; ROC curve, largest Youden index, patients receiving combination therapy
  optimal cutoff point value of AUCss,24 h/MIC for clinical efficacy: 66.9
[4]; all 105 patients (70/105), assessed at end of treatment, combination therapy with another antimicrobial
  clinical success rate: 66.7%
[4]; intravenous plus inhaled (IV + IH) group, AUCss,24 h/MIC < 66.9 (51 patients)
  clinical success rate: 71.4%
[4]; multivariate logistic regression, p = 0.009
  Adjusted OR (95% CI) of AUCss,24 h/MIC for clinical efficacy: 0.97 (0.95–0.99)
[4]; multivariate logistic regression, p = 0.028, listed as PMB
  Adjusted OR (95% CI) of daily dose (mg) for clinical efficacy: 0.98 (0.97–0.99)
[4]; multivariate logistic regression, p = 0.039, aerosol 25 or 50 mg twice daily, listed as PMB
  Adjusted OR (95% CI) of combination of inhaled polymyxin B for clinical efficacy: 0.32 (0.11–0.94)
